The values below come from article PMC8459971, “Evaluation of the hepatotoxicity of the novel GPR40 (FFAR1) agonist CPL207280 in the rat and monkey” (PLoS ONE, 2021).

Each structure is given as a SMILES string. Values joined by “and” are separate entries in the source; they are usually repeats but may differ in a detail not shown here. Equal entries are not always repeated.

Series [1] is described as follows: Metabolite profiling, rat hepatocytes. The format is in vitro ADME. The note with it: 10 μM CPL207280, 120 min, ND = not detected. The protocol: Suspensions of cryopreserved human, rat, and monkey hepatocytes were pooled from a minimum of three individuals. All cryopreserved hepatocytes were purchased from a commercial supplier. […] The cell density was 0.5 ×10^6 viable cells/mL. The final DMSO concentration during the incubation was 0.25%. Control incubations were performed in lysed cells to reveal any non-enzymatic degradation. Two control compounds were identified in each species. Samples (50 μL) were removed from the incubation mixture at 0, 10, 20, 40, 60, and 120 min and added to methanol containing an internal standard (100 μL) to stop the reaction. The samples were centrifuged (4000 x g at 4°C for 30 min) and the supernatants at each time point were pooled for analysis by LC MS/MS using Cyprotex generic methods. Following hepatocyte stability assays, the samples were utilized for metabolite profiling. […] Metabolites were characterized using a mass spectrometer comprising Waters Xevo QT of G2-S, Acquity Binary Solvent Manager, Acquity Column Manager, and 2777 Autosampler.

Series [2] in a line: Stability in cryopreserved hepatocytes, human. It counts as in vitro ADME. Particulars: for Compound Remaining (% of 0 min): Hepatocyte Stability Human, single replicates. The protocol: The final incubation volume was 500 μL. Two control compounds (verapamil and donepezil) were included for each microsomal species, along with the appropriate vehicle control. The reactions were terminated by transferring 50 μL of incubate to 100 μL methanol containing an internal standard (metoprolol) at appropriate time points (0, 10, 20, 40, 60, and 120 min for the test compound and 0, 5, 10, 20, 40, and 60 min for the control compounds). The termination plates were centrifuged at 4000 x g at 4°C for 30 min to precipitate the protein. The supernatants were then collected for analysis, and LC-MS/MS was used for detection purposes. The system consisted of an Acquity™ Binary Solvent Manager, Acquity™ 4-position heated column manager, 2777 Ultra High Pressure Autosampler, and a Xevo-TQ MS triple quadrupole mass spectrometer (Waters Ltd., Herts, UK). This process was carried out twice.

Setting [3] is: cryopreserved hepatocytes (suspension), Human hepatocytes, mean n = 2.

With `CC#C[C@@H](CC(=O)O)c1ccc(OCC(C)=C(C)C)cc1` [CPL207280], the “rat % of parent at 120 min” value in series [1] was 57.6%. Moreover, the “Compound Remaining (% of 0 min)” value in series [2] (0 min) was 100 % of 0 min; in series [2] (10 min) it was 73.2 % of 0 min and 74.0 % of 0 min; in series [2] (20 min), 42.2 % of 0 min and 46.1 % of 0 min; in series [2] (40 min) it was 20.6 % of 0 min and 16.0 % of 0 min; in series [2] (60 min) it was 10.5 % of 0 min and 7.67 % of 0 min; in series [2] (120 min) it was 3.07 % of 0 min and 1.62 % of 0 min. Further, in series [2] (setting [3]), the half-life at 3 μM amounted to 17 min. In series [2] (setting [3]), this compound yielded a microsomal CLint at 3 μM of 82.8 µL/min/mg.
